Experimental data: ChEMBL document CHEMBL1142322, “Synthesis and biological evaluation of novel 8-aminomethylated oroxylin A analogues as alpha-glucosidase inhibitors” (Bioorg Med Chem Lett, 2008)
Active and inactive are the calls of the source. No cut-off for these calls is given here.

Assays:
[1] = species: Rattus norvegicus; experiment: (§1) Inhibition of rat intestinal alpha-glucosidase
[2] = test system: Saccharomyces cerevisiae; experiment: (§2) Inhibition of yeast alpha-glucosidase
[3] = as §1
[4] = as §2; design: species or system Saccharomyces cerevisiae
[5] = biological target: Sucrase-isomaltase, intestinal (Homo sapiens, UniProt P14410); experiment: Inhibition of sucrase
Sucrase-isomaltase, intestinal, sequence (P14410 2-1007 limits assumed): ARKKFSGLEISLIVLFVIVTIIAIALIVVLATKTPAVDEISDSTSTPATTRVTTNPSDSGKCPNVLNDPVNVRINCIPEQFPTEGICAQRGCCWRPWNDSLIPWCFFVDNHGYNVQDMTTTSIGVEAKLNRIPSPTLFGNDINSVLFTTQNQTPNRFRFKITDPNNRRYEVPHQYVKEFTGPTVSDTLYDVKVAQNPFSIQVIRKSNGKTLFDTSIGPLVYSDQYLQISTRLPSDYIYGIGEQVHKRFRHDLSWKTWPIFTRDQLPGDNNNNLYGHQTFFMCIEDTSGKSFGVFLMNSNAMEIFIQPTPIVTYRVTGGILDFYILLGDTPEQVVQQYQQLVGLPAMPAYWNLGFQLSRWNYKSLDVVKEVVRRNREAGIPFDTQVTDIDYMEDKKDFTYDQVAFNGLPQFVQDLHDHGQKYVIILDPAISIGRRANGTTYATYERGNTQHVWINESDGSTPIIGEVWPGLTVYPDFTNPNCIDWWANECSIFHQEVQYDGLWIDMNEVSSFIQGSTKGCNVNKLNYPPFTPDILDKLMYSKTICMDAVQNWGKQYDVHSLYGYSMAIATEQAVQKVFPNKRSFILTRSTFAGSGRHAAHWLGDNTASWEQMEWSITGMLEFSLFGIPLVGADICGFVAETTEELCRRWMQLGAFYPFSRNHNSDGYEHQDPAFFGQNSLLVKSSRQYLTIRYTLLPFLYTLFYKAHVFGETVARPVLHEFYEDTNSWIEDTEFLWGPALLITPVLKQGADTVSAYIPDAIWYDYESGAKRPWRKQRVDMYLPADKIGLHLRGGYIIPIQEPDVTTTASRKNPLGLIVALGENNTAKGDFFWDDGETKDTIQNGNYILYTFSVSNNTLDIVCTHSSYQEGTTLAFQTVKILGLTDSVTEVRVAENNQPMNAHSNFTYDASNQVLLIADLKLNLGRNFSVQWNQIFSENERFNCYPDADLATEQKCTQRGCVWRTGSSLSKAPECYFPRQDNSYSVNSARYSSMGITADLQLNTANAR
Sucrase-isomaltase, intestinal, sequence (P14410 1008-1827 limits assumed): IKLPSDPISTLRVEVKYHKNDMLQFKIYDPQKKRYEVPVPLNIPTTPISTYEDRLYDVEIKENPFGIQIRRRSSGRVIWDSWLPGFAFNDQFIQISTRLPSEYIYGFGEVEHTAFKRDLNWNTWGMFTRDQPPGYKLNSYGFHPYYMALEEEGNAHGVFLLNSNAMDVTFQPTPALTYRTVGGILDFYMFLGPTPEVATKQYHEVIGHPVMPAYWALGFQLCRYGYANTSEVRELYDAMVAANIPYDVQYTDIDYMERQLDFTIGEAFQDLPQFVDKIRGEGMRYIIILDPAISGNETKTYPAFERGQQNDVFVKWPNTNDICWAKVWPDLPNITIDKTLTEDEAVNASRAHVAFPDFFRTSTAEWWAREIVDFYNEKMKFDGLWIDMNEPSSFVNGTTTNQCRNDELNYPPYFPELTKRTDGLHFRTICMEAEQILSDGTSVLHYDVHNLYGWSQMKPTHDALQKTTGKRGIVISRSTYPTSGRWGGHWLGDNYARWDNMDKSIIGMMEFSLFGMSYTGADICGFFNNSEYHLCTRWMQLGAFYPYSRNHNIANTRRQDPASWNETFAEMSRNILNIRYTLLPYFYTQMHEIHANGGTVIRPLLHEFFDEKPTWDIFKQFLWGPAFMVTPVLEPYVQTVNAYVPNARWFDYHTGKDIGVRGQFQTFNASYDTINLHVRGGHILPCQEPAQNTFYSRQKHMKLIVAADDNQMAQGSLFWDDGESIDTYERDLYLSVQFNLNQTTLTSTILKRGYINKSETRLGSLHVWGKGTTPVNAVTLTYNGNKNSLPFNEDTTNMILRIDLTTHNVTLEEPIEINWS

| Activity [1] | Activity [2] | IC50 [3] | IC50 [4] | IC50 [5] | Structure (SMILES) |
| --- | --- | --- | --- | --- | --- |
| inactive | inactive | – | – | – | CCCCNCc1c(O)c(OC)c(O)c2c(=O)cc(-c3ccccc3)oc12 |
| – | – | 35.4 µM | 98.8 µM | – | COc1c(O)c(CN2CCN(C)CC2)c2oc(-c3ccccc3)cc(=O)c2c1O |
| inactive | inactive | – | – | – | COc1c(O)c(CN(C)Cc2ccccc2)c2oc(-c3ccccc3)cc(=O)c2c1O |
| inactive | inactive | – | – | – | COc1c(O)c(CN(c2ccccc2)c2ccccc2)c2oc(-c3ccccc3)cc(=O)c2c1O |
| – | – | 6.38 µM | – | – | C[C@H]1O[C@H](O[C@H]2[C@H](O)[C@@H](O)[C@@H](O[C@H]3[C@H](O)[C@@H](O)C(O)O[C@@H]3CO)O[C@@H]2CO)[C@H](O)[C@@H](O)[C@@H]1N[C@H]1C=C(CO)[C@@H](O)[C@H](O)[C@H]1O (some centres undefined) [ACARBOSE] |
| – | – | 76 µM | 150 µM | – | COc1c(O)c(CN2CCOCC2)c2oc(-c3ccccc3)cc(=O)c2c1O |
| – | – | 75 µM | 84.4 µM | – | COc1c(O)c(CN2CCN(C(=O)OC(C)(C)C)CC2)c2oc(-c3ccccc3)cc(=O)c2c1O |
| – | – | 50.7 µM | 167 µM | – | COc1c(O)c(CN2CCCCC2)c2oc(-c3ccccc3)cc(=O)c2c1O |
| inactive | inactive | – | – | – | COc1c(O)c(CN2CCCC2)c2oc(-c3ccccc3)cc(=O)c2c1O |
| – | – | – | 49.3 µM | – | OC[C@H]1NC[C@H](O)[C@@H](O)[C@@H]1O [DUVOGLUSTAT] |
| – | – | 215 µM | 203 µM | 52 µM | O=c1cc(-c2ccccc2)oc2cc(O)c(O)c(O)c12 [BAICALEIN] |
| – | – | 135 µM | 124 µM | – | COc1c(O)cc2oc(-c3ccccc3)cc(=O)c2c1O [OROXYLIN A] |
| – | – | 376 µM | 371 µM | – | O=c1cc(-c2ccccc2)oc2cc(O)cc(O)c12 [CHRYSIN] |
| inactive | inactive | – | – | – | COc1c(O)c(CN(C)Cc2ccco2)c2oc(-c3ccccc3)cc(=O)c2c1O |
| inactive | inactive | – | – | – | COc1c(O)c(CNCc2ccccc2)c2oc(-c3ccccc3)cc(=O)c2c1O |
